Assays:
Helicoverpa armigera = assay: Test Example 4: pesticidal effect against Helicoverpa armigera, cabbage leaf disk; format: in vivo; details: 100 ppm; third instar larva on cabbage leaf disk; three days after treatment, 25° C.
Source text: A cabbage leaf disk having a diameter of 2.8 cm was placed is in a plastic cup. Test compounds, which had been diluted to a predetermined concentration by the addition of a 50% aqueous acetone solution (Tween 20, 0.05% added), were spreaded over the cabbage leaf disk by means of a spray gun, and the cabbage leaf disk was then air dried. A larva at the third instar of Helicoverpa armigera was released in the cup. The cup was then lidded, and the larva was reared in the temperature-controlled room (25° C.). […] The test was repeated 5 times. Further, the death rate of the larvae were calculated in the same manner as in Test Example 1.

Tenebrio molitor L = details: WO 2004/060065; cited from earlier work
[1] = system: larvae of Helicoverpa zea; details: Applied and Environmental Microbiology (1995), 61(12), 4429-35; cited from earlier work
[2] = system: Plutella xylostella L larvae; details: WO 2004/060065; cited from earlier work

For `CC1(COC(=O)C2CCC2)C(OC(=O)C2CCC2)CCC2(C)C1CC(OC(=O)C1CCC1)C1(C)Oc3cc(-c4cccnc4)oc(=O)c3C(O)C21` (stereo not shown) [Compound 219], the “death rate of larvae” value (Helicoverpa armigera) was “not less than 80%”.
In the case of `CC(=O)OCC1(C)C(OC(C)=O)CCC2(C)C1CC(OC(C)=O)C1(C)Oc3cc(-c4cccnc4)oc(=O)c3C(O)C21` (stereo not shown) [pyripyropene A], the “insecticidal activity against Tenebrio molitor L” value (Tenebrio molitor L) is given as “insecticidal activity”, the “insecticidal activity against larvae of Helicoverpa zea” value [1] is given as “insecticidal activity” and the “insecticidal activity against Plutella xylostella L larvae” value [2] is given as “insecticidal activity”.

— patent US8367707B2, “Pest control agents” (Meiji Seika Pharma Co., Ltd., priority 2005, dated 2013)
